Data reported in patent EP4603105A1, “PHARMACEUTICAL COMPOSITION CONTAINING CYCLIC COMPOUND HAVING SELECTIVE KRAS INHIBITORY EFFECT AGAINST HRAS AND NRAS” (CHUGAI SEIYAKU KABUSHIKI KAISHA, priority 2022, dated 2024).

Assays:
[1] = molecular target: GDP-bound NRAS wild-type protein (Homo sapiens, UniProt P01111); experiment: Binding to NRAS by surface plasmon resonance (SPR), KD and KD ratio to KRAS
Method in brief: (§1)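 SPR, 30°C: Avi-biotin RAS·GDP captured via Biotin CAPture (~100–300 RU); running buffer HBS pH 7.4, 1 mM DTT, 10 mM MgCl2, 0.01% Tween 20, 10 µM GDP, 4% DMSO. Single-cycle kinetics, 100 µL/min, 75 s injections; 1:1 model → KD.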

HRAS wild-type protein = HRAS wild-type protein (Homo sapiens, UniProt P01112); experiment: Binding to HRAS by surface plasmon resonance (SPR), KD and KD ratio to KRAS
HRAS wild-type protein, sequence (P01112 whole entry): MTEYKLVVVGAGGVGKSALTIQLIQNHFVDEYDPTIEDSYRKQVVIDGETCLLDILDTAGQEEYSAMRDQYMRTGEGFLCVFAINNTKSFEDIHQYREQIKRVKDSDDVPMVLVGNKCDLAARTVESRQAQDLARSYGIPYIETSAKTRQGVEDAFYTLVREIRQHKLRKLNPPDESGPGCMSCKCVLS
Method in brief: as §1

[2] = tested on: human lung cancer strain NCI-H441; format: cell-based
Method in brief: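 Proliferation was scored by […] measured after the reagent was added to cultures kept at 37°C in 5% carbon dioxide.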

[3] = ratio of KD value for GDP-bound NRAS wild-type protein to KD value for KRAS (SPR)
[4] = ratio of KD value for HRAS wild-type protein to KD value for KRAS (SPR)
[5] = ratio of the KD value with respect to GDP-bound NRAS wild-type protein to the KD value with respect to KRAS
[6] = ratio of the KD value with respect to HRAS wild-type protein to the KD value with respect to KRAS

GDP-bound NRAS wild-type protein, sequence (P01111 whole entry): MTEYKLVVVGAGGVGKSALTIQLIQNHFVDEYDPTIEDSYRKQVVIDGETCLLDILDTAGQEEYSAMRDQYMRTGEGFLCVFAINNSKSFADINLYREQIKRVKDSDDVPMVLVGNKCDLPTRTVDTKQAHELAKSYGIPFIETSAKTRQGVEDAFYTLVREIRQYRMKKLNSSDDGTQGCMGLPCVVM

| SMILES | NRAS /KRAS [1, 3] | HRAS /KRAS (HRAS wild-type protein; [4]) | IC50 [2] | NRAS /KRAS [1, 5] | HRAS /KRAS (HRAS wild-type protein; [6]) | NRAS /KRAS ([1]; ratio of KD with respect to GDP-bound NRAS wild-type protein to KD with respect to KRAS) | HRAS /KRAS (HRAS wild-type protein; ratio of KD with respect to HRAS wild-type protein to KD with respect to KRAS) |
| --- | --- | --- | --- | --- | --- | --- | --- |
| CC[C@H](C)[C@@H]1NC(=O)[C@H](CC(C)C)N(C)C(=O)C[C@@H](C(=O)N(C)C)N(C)C(=O)[C@H](C2CCCC2)N(C)C(=O)C2(CCC2)NC(=O)[C@@H]2[C@@H](OCC(F)F)CCN2C(=O)[C@H](CCc2cc(F)c(C(F)(F)F)c(F)c2)NC(=O)CN(C)C(=O)[C@H](Cc2ccc(C(F)(F)F)cc2)N2CC/C=C\C[C@@H](C2=O)N(C)C(=O)CN(C)C1=O [PP1534] | AA (a compound having 20 or more is denoted as AA) | A (a compound having 10 or more and less than 20 is denoted as A) | 24.7 nM | – | – | – | – |
| CCC[C@@H]1C[C@H]2C(=O)NC3(CCC3)C(=O)N(C)[C@@H](C3CCCC3)C(=O)N(C)[C@H](C(=O)N(C)C)CC(=O)N(C)[C@@H](CCC)C(=O)N[C@@H]([C@@H](C)CC)C(=O)N(C)CC(=O)N(C)[C@H]3C/C=C\CCN(C3=O)[C@@H](Cc3ccc(C)cc3)C(=O)N(C)CC(=O)N[C@@H](CCc3ccc(C(F)(F)F)c(Cl)c3)C(=O)N2C1 [PP2238] | – | – | 39.3 nM | A (a compound having 10 or more and less than 20 is denoted as A) | A (a compound having 10 or more and less than 20 is denoted as A) | – | – |
| CCO[C@@H]1C[C@H]2C(=O)NC3(CCC3)C(=O)N(C)[C@@H](C3CCCC3)C(=O)N(CCC3CCCC3)[C@H](C(=O)N3CCOCC3)CC(=O)N(C)[C@@H](CC(C)C)C(=O)N[C@@H]([C@@H](C)CC)C(=O)N(C)CC(=O)N(C)[C@H]3CCCCN(C3=O)[C@@H](Cc3ccc(C(F)(F)F)cc3)C(=O)N(C)CC(=O)N[C@@H](CCc3cc(F)c(C(F)(F)F)c(F)c3)C(=O)N2C1 [PP0651] | – | – | 136 nM | B (a compound having 3 or more and less than 10 is denoted as B) | B (a compound having 3 or more and less than 10 is denoted as B) | – | – |
| CC[C@H](C)[C@@H]1NC(=O)[C@H](CC(C)C)N(C)C(=O)C[C@@H](C(=O)N2CCCC2)N(C)C(=O)[C@H](C2CCCC2)N(C)C(=O)C2(CCCC2)NC(=O)[C@@H]2CCCN2C(=O)[C@H](CCc2cc(F)c(C(F)(F)F)c(F)c2)NC(=O)CN(C)C(=O)[C@H](Cc2ccc(C(F)(F)F)cc2)N2CCCCC[C@@H](C2=O)N(C)C(=O)CN(C)C1=O [PP0509] | – | – | 109 nM | B (a compound having 3 or more and less than 10 is denoted as B) | B (a compound having 3 or more and less than 10 is denoted as B) | – | – |
| CCCN(C)C(=O)[C@@H]1CC(=O)N(C)[C@@H](CC2CCC2)C(=O)N[C@@H]([C@@H](C)CC)C(=O)N(C)CC(=O)N(C)[C@H]2C/C=C\CCN(C2=O)[C@@H](Cc2ccc(C(F)(F)F)cc2)C(=O)N(C)CC(=O)N[C@@H](CCc2cc(F)c(C(F)(F)F)c(F)c2)C(=O)N2C[C@H](OCC)C[C@H]2C(=O)NC2(CCC2)C(=O)N(C)[C@@H](C2CCCC2)C(=O)N1C [PP1705] | AA (a compound having 20 or more is denoted as AA) | A (a compound having 10 or more and less than 20 is denoted as A) | 8 nM | – | – | – | – |
| CCC[C@H]1C(=O)N[C@@H]([C@@H](C)CC)C(=O)N(C)CC(=O)N(C)[C@H]2C/C=C\CCN(C2=O)[C@@H](Cc2ccc(C)cc2)C(=O)N(C)CC(=O)N[C@@H](CCc2ccc(C(F)(F)F)c(Cl)c2)C(=O)N2C[C@H](OCC)C[C@H]2C(=O)NC2(CC(C)(C)C2)C(=O)N(C)[C@@H](CC(F)(F)F)C(=O)N(C)[C@H](C(=O)N(C)C)CC(=O)N1C [PP2226] | – | – | 14.7 nM | A (a compound having 10 or more and less than 20 is denoted as A) | A (a compound having 10 or more and less than 20 is denoted as A) | – | – |
| CCO[C@@H]1C[C@H]2C(=O)NC3(CCC3)C(=O)N(C)[C@@H](C(CC)CC)C(=O)N(C)[C@H](C(=O)N(C)CCOC)CC(=O)N(C)[C@@H](CC)C(=O)N[C@@H]([C@@H](C)CC)C(=O)N(C)CC(=O)N(C)[C@H]3C/C=C\CCN(C3=O)[C@@H](Cc3ccc(C(F)(F)F)cc3)C(=O)N(C)CC(=O)N[C@@H](CCc3cc(F)c(C(F)(F)F)c(F)c3)C(=O)N2C1 [PP1330] | – | – | 79.6 nM | – | – | AA (a compound having 20 or more is denoted as AA) | A (a compound having 10 or more and less than 20 is denoted as A) |
| CC[C@H](C)[C@@H]1NC(=O)[C@H](CC(C)C)N(C)C(=O)C[C@@H](C(=O)N2CCOCC2)N(C)C(=O)[C@H](C2CCCC2)N(C)C(=O)C2(CC2)NC(=O)[C@@H]2CCCN2C(=O)[C@H](CCc2cc(F)c(C(F)(F)F)c(F)c2)NC(=O)CN(C)C(=O)[C@H](Cc2ccc(C(F)(F)F)cc2)N2CCCCC[C@@H](C2=O)N(C)C(=O)CN(C)C1=O [PP0496] | – | – | 399 nM | B (a compound having 3 or more and less than 10 is denoted as B) | B (a compound having 3 or more and less than 10 is denoted as B) | – | – |
